Experimental findings from patent US5053418A, “Antiprotozoal agents” (Burroughs Wellcome Co., priority 1983, dated 1991) are described below.

One series can be described thus: in vivo. As to conditions: rat, acute oral, rats. On the procedure:
The acute oral LD50 's of compounds of formula (I) in rats were determined by standard techniques.

A further series deals with P.falciparum. In words: In vitro activity against P.falciparum: inhibition of 3H-adenosine/3H-hypoxanthine incorporation (modified Desjardins). In kind it is cell-based. As to conditions: naphthoquinone alone. As to the method: Each of the two compounds to be tested were dissolved in ethanol at a concentration of 10 mg/L and serially diluted with RPMI 1640 medium and 10% (v/v) human plasma in microtitration plates. P.falciparum-parasitised and fresh blood cells were added together with ^3 H-adenosine or ^3 H-hypoxanthinein RPMI 1640 medium and 10% human plasma. The cultures were then incubated at 37° C. for 43 hours, harvested and the particulate contents collected on glass fibre filter papers which were washed copiously with water using a Cooke Microtiter System (Dynatech Labs. Europe); the filter papers were dried and the radioactivity measured using a scintillation counter. Infected, untreated and uninfected cultures were included as controls. Percent inhibition was correlated with dose to provide an IC50 for each drug alone.
For subsequent combination experiments the individual drug solutions and mixtures thereof were serially diluted.
By the method of Example 1 the effect of a number of naphthoquinone/clopidol (4-pyridinol) combinations on P.falciparum in vitro were determined.

In “in vivo”, `CC(C)(C)C1CCC(C2=C(O)C(=O)c3ccccc3C2=O)CC1` (stereo not shown) [2-(4-t-butylcyclohexyl)-3-hydroxy-1,4-naphthoquinone] registered an LD50 of over 1000 mg/kg. In addition, the inhibition at 15.6 pg/mL in the series with P.falciparum (Plasmodium falciparum, 0.0000156 mg/L) worked out at 0.5%. In addition, the inhibition at 32.5 pg/mL in the series with P.falciparum (Plasmodium falciparum, 0.0000325 mg/L) was found to be 2%. Moreover, in the series on P.falciparum (0.00003125 mg/L), the “% inhibition” value is on record as 5%.

What is called LD50 is the dose at which mortality reaches 50%. Lower therefore signals a more toxic substance. By inhibition is commonly meant how much of the control response was suppressed. One may read the % inhibition as the drop in the measured response relative to a control, in per cent.
